Earlier results in patent publication US20090263467A1, “COMBINATION DRUG THERAPY USING ORALLY DISSOLVING FILM OR ORALLY DISINTEGRATING TABLET DOSAGE FORMS TO TREAT DRY MOUTH AILMENTS” (priority 2008, published 2009).

Tests used:
[1] = neutral pH

permeability [1]: higher | half-life: 45.6 min
Compound: CC[C@@H]1C(=O)OC[C@@H]1Cc1cncn1C [Pilocarpine]
